Source: patent publication US20150126368A1, “METHOD OF PROVIDING PLANT WITH STRESS RESISTANCE” (Nippon Soda Co., Ltd., priority 2012, published 2015)
Read-outs that look alike come from different tables or passages of the source.

Tests used:
Assay type in all cases: in vivo
Tomato (breed: Reiryo) = experiment: Evaluation test for relief effects of strong light injury on tomato; conditions: summer blazing sun, 4 days after spraying
Protocol: Tomato (breed: Reiryo, 2 reprications) grown up to the two leaf stage in a greenhouse was prepared.
A water dispersible granule of 30% of ascorbyl palmitate and pyraclostrobin dissolved to 40% N,N-dimethylformamide were diluted with tap water to each of the concentrations described in Table 9, and the diluted solution was sprayed over the whole nursery plants in a sufficient amount. After air dried, they were exposed to strong light under summer blazing sun. A degree of disorder was investigated at the elapsed time of 4 days after the spraying.
For disorder, a degree of necrosis due to light effects was evaluated by 11 levels of disorder indices from 0 (no necrosis) to 10 (withering to death). From this, disorder relief percentages were computed by the following formula.
(§1) Injury relief percentage=((disorder index of untreated region)−(disorder index of each treated region))/(disorder index of untreated region)×100

Pyricularia oryzae = conditions: 11 days after inoculation
[1] = tested on: Eggplant (breed: Senryo 2 gou); experiment: Evaluation test for relief effects of low temperature injury on eggplant; conditions: 13° C. daylight/8° C. dark, 15 days after spray
Protocol: Eggplant (breed: Senryo 2 gou, 3 reprications) grown up to the 4 to 6 leaf stage in a greenhouse was prepared.
A water dispersible granule of 30% ascorbyl palmitate and pyraclostrobin dissolved to 40% with N,N-dimethylformamide were diluted with tap water to a concentration described in Table 6, and the diluted solution was sprayed over the whole nursery plants in a sufficient amount. After air dried, they were allowed to grow for 1 day under conditions of 16 hours under a daylight condition at 18° C. and 8 hours under a dark condition at 13° C., and then allowed to grow under conditions of 16 hours under a daylight condition at 13° C. and 8 hours under a dark condition at 8° C. A degree of disorder was investigated at the elapsed time of 15 days after the spray treatment.
Disorders were evaluated by 4 levels of disorder indices of 0 (no color change), 1 (discolored up to ¼ of the whole), 2 (discolored up to ½ of the whole), 3 (discolored at ½ or more of the whole) with reference to the area of a discolored portion in an expanded leaf after treatment.
as §1

[2] = tested on: Cucumber (breed: Sagamihanjirohushinari); experiment: Evaluation test for relief effects of acidity problem on cucumber; conditions: hydroponic medium pH 4 from 2 days, leaf stage 17 days after spray
Protocol: Cucumber (breed: Sagamihanjirohushinari, 2 reprications) hydroponically grown up to the two leaf stage in a 100 ml flask was prepared.
A water dispersible granule of 30% ascorbic acid palmitate and pyraclostrobin adjusted to 40% with N,N-dimethylformamide were diluted with tap water to a predetermined concentration, and the diluted solution was sprayed over the whole nursery plants in a sufficient amount. The water culture medium was adjusted to pH 4 with 1 N hydrochloric acid at the elapsed time of 2 days after the spray treatment, and the above cucumber was continuously allowed to grow hydroponically. Leaf stage of the cucumber was investigated 17 days after the spray treatment. From this, disorder relief percentages were computed by the following formula.
Acidity problem relief percentage=((leaf stage of each treatment region)−(leaf stage of untreated region))/(leaf stage of untreated region)×100

[3] = tested on: Wheat (breed, Norin No. 61); experiment: Test for green color maintenance effects (relief of high temperature injury) on wheat; conditions: appl. amount 1.5 g/m^2 at plant foot, 4 times at intervals of seven days, field
Excerpt: Wheat (breed, Norin No. 61, 15 plants/m^2/region, 2 reprications) grown in the field was used. A water dispersible granule of 30% ascorbyl palmitate in an amount described in Table 11 was applied to the plant foot 4 times at intervals of seven days from the next day of the ear emergence day in August. The leaf color index of top 4 to 5 leaves of each plant in a treatment region was investigated on September 6 to evaluate maintenance effects of leaf color as compared with that in the untreated region.
Leaf color was evaluated by […] of leaf color indices of 1 (discolored at ¼ or less of the whole), 2 (discolored at ½ or less of the whole) and 3 (discolored at ¾ or more of the whole). From this, the mean leaf color index, and green color maintenance effects were computed by the following formula.
Green color maintenance effect=(leaf color index of untreated region)−(leaf color index of each treatment region))/(leaf color index of untreated region)×100

[4] = tested on: Cherry tomato (breed; Regina); experiment: Evaluation test for relief effects of high temperature injury on cherry tomato; conditions: 30% water dispersible granule at plant foot at intervals of seven days
Protocol: Cherry tomato (breed; Regina, 5 reprications) grown in a greenhouse was prepared.
On August 24 at the first inflorescence anthesis, 0.15% of 4-chlorophenoxyacetic acid was sprayed, and a water dispersible granule of 30% ascorbyl palmitate in an amount described in Table 4 was further applied at the plant foot at intervals of seven days. All fruits were harvested on September 28, and the color of a fruit (classified into red and green), the weight of a fruit, and the number of fruits were investigated to calculate the weight per fruit and the percentage of red fruits (%).

[5] = Pyraclostrobin 5 ppm spray on rice (Koshihikari) one day before inoculation
[6] = ascorbyl palmitate 1000 ppm spray
[7] = ascorbyl palmitate 50 ppm spray on rice (Koshihikari) one day before inoculation

## COC(=O)N(OC)c1ccccc1COc1ccn(-c2ccc(Cl)cc2)n1 [Pyraclostrobin, reference compound]
Tomato (breed: Reiryo); Pyraclostrobin 50 ppm spray
  relief percents of strong light injury (%): 40%
Pyricularia oryzae; [5]
  Number of lesion spots: 10
  Preventive value(%): 70%
[1]; Pyraclostrobin 50 ppm spray
  relief percents of low-temperature injury(%): 13.0%
[2]; Pyraclostrobin 50 ppm spray
  relief percents of acidity problem(%): 15.6%

## CCCCCCCCCCCCCCCC(=O)OC[C@H](O)[C@H]1OC(=O)C(O)=C1O [ascorbyl palmitate]
[3]; index 1 to 3
  mean leaf color index: 1.5
[3]; vs untreated region
  Green color maintenance effect(%): 25.0%
Tomato (breed: Reiryo); [6]
  relief percents of strong light injury (%): 50%
Pyricularia oryzae; [7]
  Number of lesion spots: 30
  Preventive value(%): 9%
[1]; [6]
  relief percents of low-temperature injury(%): 13.0%
[4]; dosage 0.1 g/stock
  color of fruit: Number of green fruits: 13
  color of fruit: Number of red fruits: 19
  color of fruit: Percents of red fruits vs. no treatment region(%): 141%
  color of fruit: Percents of red fruits(%): 59%
  yield: Total number of fruits: 32
  yield: Total weight of fruits: 304 g
  yield: weight per fruit vs. no treatment region(%): 138%
  yield: weight per fruit(g/fruit): 9.5 g/fruit
[4]; dosage 0.5 g/stock
  color of fruit: Number of green fruits: 4
  color of fruit: Number of red fruits: 29
  color of fruit: Percents of red fruits vs. no treatment region(%): 209%
  color of fruit: Percents of red fruits(%): 88%
  yield: Total number of fruits: 33
  yield: Total weight of fruits: 342 g
  yield: weight per fruit vs. no treatment region(%): 151%
  yield: weight per fruit(g/fruit): 10.4 g/fruit
[2]; [6]
  relief percents of acidity problem(%): 15.6%
